# Tests used:
# Assay type in all cases: in vivo
# [1] = system: Spring Wheat “Teal”; experiment: Biological Example 4A post-emergence phytotoxicity on cereal crops; conditions: 14 DAA, EC formulation, mean of two
# Protocol: (§1) Seeds of a variety of test species are sown in standard soil in pots. After cultivation for 14 days under controlled conditions in a glasshouse (at 22/16°C., day/night; 16 hours light; 65% humidity), the plants are sprayed with the test compounds. The test plants are then grown on under controlled conditions in the glasshouse (at 22/16°C., day/night; 16 hours light; 65% humidity) and are watered twice daily. After 14 days the test is evaluated visually (100%=total damage to plant; 0%=no damage to plant). Post-emergence herbicidal activity (phytotoxicity) data, on certain grassy monocotyledonous weeds and cereal crops in a glasshouse, are measured 14 days after application of the herbicide (14 DAA), inter alia for post-emergence application rates of 30 or 60 g/ha of the test herbicide, with or without 50 g/ha of cloquintocet-mexyl safener applied at substantially the same time as the herbicide.
# (§2) Herbicidal activity (phytotoxicity) is evaluated visually, and an assessed percentage phytotoxicity score is given for each herbicidal application on each plant species (with 100%=total damage to plant; 0%=no damage to plant). Two repetitions are made for each experiment and the mean herbicidal activity (phytotoxicity) data is reported.
# (§3) Biological Example 4A is used on previously-formulated compounds, typically compounds previously formulated as an emulsifiable concentrates (EC), wherein the EC contains the herbicidal compound under test dissolved in one or more organic solvents, and wherein the EC also contains one or more surfactants or emulsifiers. In the test method, the EC containing the herbicide (plus a cloquintocet-mexyl formulation if this is also present) is generally diluted with water to form an emulsion, and the resulting emulsion is sprayed onto the emerged weed and/or crop plants.
# (§4) For the testing of Compounds A-5 and A-6, each of these compounds was separately formulated into an emulsifiable concentrate containing 10% w/w of the herbicidal compound, 9% w/w of castor oil ethoxylate (an emulsifier, present as Emulsogen™EL360), 6% w/w of calcium dodecylbenzenesulfonate (linear) (an emulsifier, present as Nansa™EVM 63B), 3% w/w of tristyrylphenol ethoxylate having 16 moles of ethoxylation per mole of molecule (an emulsifier, present as Soprophor™BSU), 10% w/w of benzyl benzoate (as solvent), 20% w/w of 1-methyl-2-pyrrolidone (as solvent), and the remainder of N-octyl-2-pyrrolidone (as solvent). The solvents and surfactants/emulsifiers were first mixed together, to form a “blank” EC, and the herbicidal compound was then added to and dissolved in this solvent and emulsifier mixture to prepare the emulsifiable concentrate, to give an EC formulation/composition containing approximately 100 g/L of active herbicidal compound.
# (§5) In the tests of Compounds A-5 and A-6, the cloquintocet-mexyl was pre-formulated as a formulation/composition containing 10% w/w cloquintocet-mexyl, 6% w/w Emulsogen™ EL360 (as emulsifier), 4% w/w Nansa™EVM 63B (as wetting agent), 1% w/w Drapex™39 (epoxidised soybean oil), 20% w/w 1-methyl-2-pyrrolidone (as solvent), and the remainder as Solvesso™200ND (a mixture of heavy aromatic hydrocarbons, as a solvent).
# [2] = system: Winter Wheat “Hereward”; experiment: as above; conditions: 14 DAA, EC formulation, mean of two
# Protocol: as §1, §2, §3, §4, §5
# [3] = system: Winter Barley “Suzuka”; experiment: as above; conditions: 14 DAA, EC formulation, mean of two
# Protocol: as §1, §2, §3, §4, §5
# [4] = system: Spring Barley “Harrington”; experiment: as above; conditions: 14 DAA, EC formulation, mean of two
# Protocol: as §1, §2, §3, §4, §5
# [5] = system: Avena fatua (AVEFA); experiment: Biological Example 4A (previously-formulated compounds) post-emergence herbicidal activity on grassy weeds; conditions: 14 DAA, EC formulation, mean of two
# Protocol: as §1, §2, §3, §4, §5
# (§6) Test plants: Avena fatua (AVEFA), Lolium multiflorum (LOLMU), Setaria viridis (SETVI), Poa annua (POAAN), Alopecurus myosuroides (ALOMY). All five of these are grassy monocotyledonous weeds.
# [6] = system: Poa annua (POAAN); experiment: as above; conditions: 14 DAA, EC formulation, mean of two
# Protocol: as §1, §2, §3, §4, §5, §6
# [7] = system: Setaria viridis (SETVI); experiment: as above; conditions: 14 DAA, EC formulation, mean of two
# Protocol: as §1, §2, §3, §4, §5, §6
# [8] = system: Lolium multiflorum (LOLMU); experiment: as above; conditions: 14 DAA, EC formulation, mean of two
# Protocol: as §1, §2, §3, §4, §5, §6
# [9] = system: Alopecurus myosuroides (ALOMY); experiment: as above; conditions: 14 DAA, EC formulation, mean of two
# Protocol: as §1, §2, §3, §4, §5, §6
# [10] = system: Echinochloa crus-galli (ECHCG); experiment: Biological Example 1 glasshouse screen, post-emergence herbicidal activity; conditions: 312 h, read-out: ECHCG percentage phytotoxicity
# How it was run: (§7)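 Potted test species received a foliar or soil spray of active ingredient in acetone/water (50:50), 0.5% Tween 20, at 1 or 8 days after sowing for pre- and post-emergence respectively. Percentage phytotoxicity was assessed by eye after 13 days.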
# [11] = system: Alopecurus myosuroides (ALOMY); experiment: as above; conditions: 312 h, read-out: ALOMY percentage phytotoxicity
# How it was run: as §7
# [12] = system: grassy monocotyledonous weeds such as Lolium, Alopecurus, Echinochloa and/or Avena; experiment: Post-emergence herbicidal activity on grassy monocotyledonous weeds, summary statements (Biological Examples 1 to 4)
# [13] = system: Avena fatua (AVEFA); experiment: Biological Example 1 glasshouse screen, post-emergence herbicidal activity; conditions: 312 h, read-out: AVEFA percentage phytotoxicity
# How it was run: (§8)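 Pots in a glasshouse (24/16°C day/night, 14 h light, 65% humidity) were sprayed one day after sowing (pre-emergence) or after 8 days (post-emergence), using acetone/water (50:50) with 0.5% Tween 20. Phytotoxicity was scored visually as % damage (0-100) 13 days after application.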
# [14] = system: Lolium perenne (LOLPE); experiment: as above; conditions: 312 h, read-out: LOLPE percentage phytotoxicity
# How it was run: as §8
# [15] = 30 g/ha, cloquintocet-mexyl 0 g/ha
# [16] = 30 g/ha, cloquintocet-mexyl 50 g/ha
# [17] = 60 g/ha, cloquintocet-mexyl 0 g/ha
# [18] = 60 g/ha, cloquintocet-mexyl 50 g/ha
smiles,measurement,setting,value
CC#Cc1cc(C)c(C2C(=O)C[C@@H](Cc3ccccn3)C2=O)c(C)c1 (some centres unmarked) [Compound A-6],Spring Wheat “Teal” phytotoxicity (%),[1]; [15],78%
same,Spring Wheat “Teal” phytotoxicity (%),[1]; [16],25%
same,Spring Wheat “Teal” phytotoxicity (%),[1]; [17],94%
same,Spring Wheat “Teal” phytotoxicity (%),[1]; [18],45%
same,Winter Wheat “Hereward” phytotoxicity (%),[2]; [15],65%
same,Winter Wheat “Hereward” phytotoxicity (%),[2]; [16],15%
same,Winter Wheat “Hereward” phytotoxicity (%),[2]; [17],80%
same,Winter Wheat “Hereward” phytotoxicity (%),[2]; [18],20%
same,Winter Barley “Suzuka” phytotoxicity (%),[3]; [15],93%
same,Winter Barley “Suzuka” phytotoxicity (%),[3]; [16],10%
same,Winter Barley “Suzuka” phytotoxicity (%),[3]; [17],98%
same,Winter Barley “Suzuka” phytotoxicity (%),[3]; [18],25%
same,Spring Barley “Harrington” phytotoxicity (%),[4]; [15],95%
same,Spring Barley “Harrington” phytotoxicity (%),[4]; [16],13%
same,Spring Barley “Harrington” phytotoxicity (%),[4]; [17],98%
same,Spring Barley “Harrington” phytotoxicity (%),[4]; [18],48%
same,AVEFA % phytotoxicity,[5]; [15],98%
same,AVEFA % phytotoxicity,[5]; [16],90%
same,AVEFA % phytotoxicity,[5]; [17],100%
same,AVEFA % phytotoxicity,[5]; [18],99%
same,POAAN % phytotoxicity,[6]; [15],65%
same,POAAN % phytotoxicity,[6]; [16],48%
same,POAAN % phytotoxicity,[6]; [17],94%
same,POAAN % phytotoxicity,[6]; [18],85%
same,SETVI % phytotoxicity,[7]; [15],100%
same,SETVI % phytotoxicity,[7]; [16],100%
same,SETVI % phytotoxicity,[7]; [17],100%
same,SETVI % phytotoxicity,[7]; [18],100%
same,LOLMU % phytotoxicity,[8]; [15],100%
same,LOLMU % phytotoxicity,[8]; [16],100%
same,LOLMU % phytotoxicity,[8]; [17],100%
same,LOLMU % phytotoxicity,[8]; [18],100%
same,ALOMY % phytotoxicity,[9]; [15],100%
same,ALOMY % phytotoxicity,[9]; [16],100%
same,ALOMY % phytotoxicity,[9]; [17],100%
same,ALOMY % phytotoxicity,[9]; [18],100%
same,pest or weed control at 250 g/ha,[10],100%
same,pest or weed control at 250 g/ha,[11],100%
same,"post-emergence herbicidal activity against grassy monocotyledonous weeds, in words",[12],more potent herbicidal activity
same,pest or weed control at 250 g/ha,[13],100%
same,pest or weed control at 250 g/ha,[14],100%

# — patent US9107415B2, “2-(substituted-phenyl)-cyclopentane-1,3-dione compounds, and derivatives thereof” (Syngenta Limited, priority 2011, dated 2015)
